Where a name gives a salt, the structure may show the parent alone.
Legend:
[1] = target: dopaminergic (D2) receptors (Rattus norvegicus, UniProt P61169); assay: biochemical; format: binding; conditions: striatal rat brain homogenates, ^3H-spiperone, 37° C., 15 minutes; read-out: 3H-Spiperone Displacement IC50
Description: Rats (150±10 g; Charles River) were decapitated, the corpus striatum dissected out and frozen on dry ice. The tissues were pooled and stored at -80° C. until used. Homogenates (Brinkmann Polytron) of the corpus striatum in cold HEPES.KOH buffer (final pH=7.4) were centrifuged at 39,000×G. The supernatant was discarded and the pellets were re-suspended in HEPES.KOH buffer and re-centrifuged as above.
Tests to determine the Inhibitory Concentration50 (IC50) of the compounds of Formula I and reference compounds versus ^3 H-spiperone were conducted as follows. Tubes containing either 100 μL of buffer mixture (for total binding), 100 μL of buffer mixture plus 100 μL of 10^-4 M D(+)-butaclamol (for blanks, i.e. non-specific binding), or 100 μL of buffer mixture containing 10^-7, 10^-6 or 10^-5 M test compound were prepared. To each were added 100 μL of a solution of ^3 H-spiperone (New England Nuclear) in buffer mixture (2000 c.p.m. in the incubation mixture) and 800 μL of the striatal tissue suspension. The tubes were then diluted to 1 mL with buffer mixture, giving a final concentration of 10^-8, 10^-7 or 10^-6 M test compound and approximately 100 pM ^3 H-spiperone. The samples were incubated at 37° C. for 15 minutes, filtered in vacuo on glass fiber filters and counted by liquid scintillation spectrometry. […] All samples were run in duplicate.

[2] = tested on: Apomorphine-Induced Emesis; assay: Antagonism of Apomorphine-Induced Emesis in Dogs; format: in vivo, beagle dogs; conditions: Canis lupus familiaris, sc; s.c. 30 minutes prior to apomorphine 0.3 mg/kg; dog; read-out: Antagonism of Apomorphine-Induced Emesis in the Dog ED50
Description: Unfasted beagle dogs of both sexes were used as test subjects. Test compounds and apomorphine were each administered subcutaneously as aqueous solutions, with the test compound being administered 30 minutes prior to the administration of the apormorphine.
Apomorphine was administered at a dose of 0.3 mg/kg. […] All tests were run in at least two dogs.

Cisplatin-Induced Emesis = assay: Antagonism of Cisplatin-Induced Emesis in the Ferret; format: in vivo, Fitch ferrets; conditions: Mustela putorius, iv, 4 h, i.v. × 2, read-out: Antagonism of Cisplatin-Induced Emesis in the Ferret, % Protection
From the text: The ventral and dorsal area of the neck is shaved and a 3 cm incision is made. The left jugular vein is exposed and ligated with a silk suture at the cephalic end. The indwelling catheter is constructed of Silastic tubing 18 cm in length (0.020 inch I.D.×0.037 inch O.D.) with a 2 cm polyethylene sleeve (0.045 inch I.D.×0.062 inch O.D.) filled with heparin (1000 units/ml) and sealed at the exposed end with a 23 gauge×1 inch needle crimped at both ends. A small cut is made in the jugular and the catheter inserted, allowing the free end to be delivered through a 13 gauge×5 cm trochar under the skin and attached to the nape of the neck with a silk suture. The ferrets are housed in individual cages and allowed 2-4 days recovery before testing. On the test day, the test compounds were administered i.v. […] The cisplatin solution was prepared by adding 70° C. physiological saline, stirring and sonicating until dissolved. The resulting solution (4 mg/ml) was maintained at 40° C. and administered i.v. ([…]) via the catheter. Following administration of cisplatin, the ferrets were observed continuously for four hours and emetic episodes recorded. Two or more emetic episodes within a one-minutes period was considered as a single episode. The ferrets were euthanized with T-61 i.v. at the termination of the experiment, and proper placement of the catheter was verified.

[3] = tested on: field-stimulated guinea pig ileum; assay: Gastrokinetic Activity: contraction of field-stimulated guinea pig ileum preparations; parameters: species or system guinea pig (Hartley); conditions: Cavia porcellus; for EC30: effective concentration30, read-out: EC30 (95% C.L.); for EC50: effective concentration50, read-out: EC50 (95% C.L.); for minimal effective concentration: read-out: Minimum Effective Concentration
Description: This activity is considered to be correlated with gastrokinetic (prokinetic) activity in vivo, i.e. enhancement of gastric motility and gastric emptying.
Normal, male guinea pigs (Hartley; Charles River) weighing […] are sacrificed by cervical dislocation. The terminal portion of the ileum was removed after discarding a 10 cm segment nearest to the ileocecal junction. The strips, 3-4 cm in length, were mounted in a 20 ml organ bath containing Krebs physiological buffer solution. The buffer was bubbled with 95% O2 -5% CO2 and kept at 37° C. The resting tension was adjusted to 1.0 g, and the tissues were equilibrated without stimulation for 15 minutes. For electrical stimulation, a platinum wire (cathode) was threaded up through the lumen and another platinum wire (anode) was attached to the glass rod that suspended the muscle. Tissues were stimulated coaxially at 1.5 times the voltage necessary to produce maximum twitch height, with single pulses, 0.5 msec in duration, delivered once every 10 seconds. After the 15 minute equilibration period (without stimulation), the stimulator (Grass S88 Stimulator) was turned on and the tissues were allowed to stabilize for approximately 1 hour, or until the twitch height remained constant, with washes every 20 minutes.

[4] = read-out: Average % Maximum Increase

Chain of dopaminergic (D2) receptors (P61169 whole entry): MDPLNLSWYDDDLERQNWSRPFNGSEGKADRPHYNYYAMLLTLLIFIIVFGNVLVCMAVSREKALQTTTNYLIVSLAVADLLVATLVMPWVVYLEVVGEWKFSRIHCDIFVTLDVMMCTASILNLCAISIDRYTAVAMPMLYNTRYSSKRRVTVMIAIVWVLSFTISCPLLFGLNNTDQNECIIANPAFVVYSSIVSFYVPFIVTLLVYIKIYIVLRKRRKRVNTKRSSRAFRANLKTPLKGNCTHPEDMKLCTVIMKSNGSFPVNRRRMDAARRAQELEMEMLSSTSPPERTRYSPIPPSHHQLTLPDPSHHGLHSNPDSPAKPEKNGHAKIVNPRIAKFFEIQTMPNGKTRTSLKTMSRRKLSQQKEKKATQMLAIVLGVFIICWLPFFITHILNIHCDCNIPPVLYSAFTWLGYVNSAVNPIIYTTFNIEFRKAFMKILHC

IC50 [1] | EC50 [3] | SMILES | ED50 [2] | inhibition in vivo at 3 mg/kg (Cisplatin-Induced Emesis) | activation at 30 µM [3, 4] | EC30 [3] | minimal effective concentration [3] | activation at 3 µM ([3]; at 3 μM, read-out: Average % Maximum Increase) | inhibition in vivo at 1 mg/kg (Cisplatin-Induced Emesis) | activation at 10 µM ([3]; at 10 μM, read-out: Average % Maximum Increase)
> 1000 nM | – | CCN(CC)CCNC(=O)c1cc(Cl)c(N)cc1OCCSC [Example 20, 4-Amino-5-chloro-N-[2-(diethylamino)ethyl]-2-[2-(methylthio)ethoxy]benzamide] | > 3 mg/kg | 50% | – | – | – | – | – | –
> 1000 nM | – | CCN(CC)CCNC(=O)c1cc(Cl)c(N)cc1OCCCN [Example 39, 4-Amino-2-(3-aminopropoxy)-5-chloro-N-[2-(diethylamino)ethyl]benzamide] | > 3 mg/kg | 71% | – | – | – | – | – | –
> 1000 nM | – | CCN(CC)CCNC(=O)c1cc(Cl)c(N)cc1OCC1CNC(=O)O1 (stereo not drawn) [Example 44, 4-Amino-5-chloro-N[2-(diethylamino)ethyl]-2-(oxazolidin)-2-one-5-ylmethyl)oxybenzamide Fumarate] | > 3 mg/kg | 71% | – | – | – | – | – | –
> 1000 nM | – | CCN(CC)CCNC(=O)c1cc(Cl)c(N)cc1OCCN [Example 47, 4-Amino-2-(2-aminoethoxy)-5-chloro-N-[2-(diethylamino)ethyl]benzamide] | > 3 mg/kg | 8% | – | – | – | – | – | –
– | 5000 nM | CCN(CC)CCNC(=O)c1cc(Cl)c(N)cc1OCC1=NCCN1 [Example 51, 4-Amino-5-chloro-N-[2-(diethylamino)ethyl]-2-(1H-4,5-dihydroimidazol-2-yl)methoxybenzamide] | > 3 mg/kg | 71% | – | 230 nM | 0.03 µM | – | – | 51%
> 1000 nM | – | CCN(CC)CCNC(=O)c1cc(Cl)c(N)cc1OCCCl [Example 53, 4-Amino-5-chloro-2-(2-chloroethoxy)-N-[2-(2-diethylamino)ethyl]benzamide] | > 3 mg/kg | 91% | – | – | – | – | – | –
– | 11000 nM | CCN(CC)CCNC(=O)c1cc(Cl)c(N)cc1OC [Metoclopramide, reference compound] | 0.5 mg/kg | 89% | 62% | 1600 nM | 0.03 µM | – | – | –

Continued, compound first:

SMILES | IC50 [1] | EC50 [3] | ED50 [2] | inhibition in vivo at 3 mg/kg (Cisplatin-Induced Emesis) | activation at 30 µM [3, 4] | EC30 [3] | minimal effective concentration [3] | activation at 3 µM ([3]; at 3 μM, read-out: Average % Maximum Increase) | inhibition in vivo at 1 mg/kg (Cisplatin-Induced Emesis) | activation at 10 µM ([3]; at 10 μM, read-out: Average % Maximum Increase)
CO[C@@H]1CN(CCCOc2ccc(F)cc2)CC[C@@H]1NC(=O)c1cc(Cl)c(N)cc1OCCSC.O (relative stereo) [Example 61, Cis-4-amino-5-chloro-N-{1-[3-(4-fluorophenoxy)propyl]-3-methoxy-4-piperidinyl}-2-[2-(methylthio)ethoxy]benzamide monohydrate] | 760 nM | – | > 3 mg/kg | 71% | – | – | – | – | – | –
CO[C@@H]1CN(CCCOc2ccc(F)cc2)CC[C@@H]1NC(=O)c1cc(Cl)c(N)cc1OCC(N)=O (relative stereo) [Example 62, Cis-4-amino-2-(2-amino-2-oxoethoxy)-5-chloro-N-{1-[3-(4-fluorophenoxy)propyl]-3-methoxy-4-piperidinyl}benzamide sesquihydrate] | > 1000 nM | – | > 3 mg/kg | 71% | – | – | – | – | – | –
C=CCN1CCCC1CNC(=O)c1cc2[nH]nnc2cc1OC (stereo not drawn) [Alizapride, reference compound] | 290 nM | – | 0.3 mg/kg | 27% | – | – | – | – | – | –
COc1cc(N)c(Cl)cc1C(=O)NC1CCN(Cc2ccccc2)CC1 [Clebopride, reference compound] | 11 nM | – | 0.04 mg/kg | 70% | – | – | – | – | – | –
C=CCC(C)(Oc1cc(N)c(Cl)cc1C(=O)NCCN(CC)CC)C(C)=O (stereo not drawn) [Example 8, 4-Amino-5-chloro-N-[2-(diethylamino)ethyl]-2-[(3-methyl)-5-hexen-2-on-3-yl]oxybenzamide] | > 1000 nM | – | > 3 mg/kg | 95% | – | – | – | – | – | –
CCN(CC)CCNC(=O)c1cc(Cl)c(N)cc1OCC(C)=NOC [Example 11, 4-Amino-5-chloro-N-[2-(diethylamino)ethyl]-2-[(2-methoxyimino)propan-1-yl]oxybenzamide] | > 1000 nM | – | > 3 mg/kg | 90% | – | – | – | – | – | –
CCN(CC)CCNC(=O)c1cc(Cl)c(N)cc1OC(C)C#N (stereo not drawn) [Example 14, 4-Amino-5-chloro-[2-(diethylamino)ethyl]-2-(1-cyano)ethoxybenzamide] | – | 18000 nM | > 3 mg/kg | 62% | 55% | 4300 nM | 0.1 µM | – | – | –
CCN(CC)CCNC(=O)c1cc(Cl)c(N)cc1OCc1cc(C)no1 [Example 19, 4-Amino-5-chloro-N-[2-(diethylamino)ethyl]-2-(3-methylisoxazol-5-yl)methoxybenzamide] | – | 5900 nM | > 3 mg/kg | 72% | – | 1700 nM | 0.1 µM | 39% | – | –
CC(=O)C(C)Oc1cc(N)c(Cl)cc1C(=O)NCCN(C)C (stereo not drawn) [Example 32, 4-Amino-2-(2-butanon-3-yl)oxy-5-chloro-N-[2-(dimethylamino)ethyl]benzamide] | > 1000 nM | – | > 3 mg/kg | – | – | – | – | – | 72% | –
CCN(CC)CCNC(=O)c1cc(Cl)c(N)cc1OC(C)C(C)=NO (stereo not drawn) [Example 34, 4-Amino-5-chloro-N-[2-(diethylamino)ethyl]-2-(2-hydroxyiminobut-3-yl)oxybenzamide] | > 1000 nM | – | > 3 mg/kg | – | – | – | – | – | 54% | –
CCOC(=O)C(Oc1cc(N)c(Cl)cc1C(=O)NCCN(CC)CC)c1ccccc1 (stereo not drawn) [Example 35, α-{3-Amino-4-chloro-6-[N-(2-[diethylamino]ethyl)]carbomoylphenoxy}phenylacetic acid, ethyl ester] | > 1000 nM | – | > 3 mg/kg | 72% | – | – | – | – | – | –
CCN(CC)CCNC(=O)c1cc(Cl)c(N)cc1OCCCN1C(=O)c2ccccc2C1=O [Example 38, 4-Amino-5-chloro-N-[2-(diethylamino)ethyl]-2-[3-(phthalimido)propoxy]benzamide] | > 1000 nM | – | > 3 mg/kg | 57% | – | – | – | – | – | –
CCOC(=O)C=C(COc1cc(N)c(Cl)cc1C(=O)NCCN(CC)CC)OC [Example 42, 4-Amino-5-chloro-N-[2-(diethylamino)ethyl]-2-(ethyl-3-methoxycroton-4-yl)oxybenzamide] | > 1000 nM | – | > 3 mg/kg | 95% | – | – | – | – | – | –
CCN(CC)CCNC(=O)c1cc(Cl)c(N)cc1OCCCSC [Example 49, 4-Amino-5-chloro-N-[2-(diethylamino)ethyl]-2-[3-(methylthio)propoxy]benzamide] | > 1000 nM | – | > 3 mg/kg | 62% | – | – | – | – | – | –
CCN(CC)CCNC(=O)c1cc(Cl)c(N)cc1OCC(=O)N(C)C [Example 55] | > 1000 nM | – | > 3 mg/kg | 66% | – | – | – | – | – | –

Source: US4820715A, “Anti-emetic quinuclidinyl benzamides” (Bristol-Myers Company, priority 1987, dated 1989)
